According to patent US11407736B2 (priority 2019, dated 2022):
Where two headings read alike, the source gives them in different places.

How the values were obtained:
U937 cells = test: U937 cell necroptosis assay (TNFa + zVAD, CellTiter-Glo); type: cell-based, human; conditions: Homo sapiens
Procedure: (§1) In this example, U937 and L929 cells were exposed to compounds of the present disclosure and a cell necroptosis assay was conducted to evaluate the compounds' activity against human RIP1 and murine RIP1.
(§2) U937 and L929 cells were obtained from the American Type Culture Collection (Manassa, Va., USA). Both cells were maintained in logarithmic growth phase in complete RPMI 1640 media (Sigma, ST Louis, Mo., USA) supplemented with 10% fetal bovine serum (Sigma, ST Louis, Mo., USA) at 37° C. with 5% CO2. For necroptosis assay, L929 cells were plated for 18 h in 100 μL/well medium at 10K cells/well in Costar 96-well black clear-bottom plates (Fisher Scientific, Hampton, N.H., USA); U937 cells were plated on the day of the assay in 50 4/well medium containing 60 uM zVAD-fink (Lonza, Basel, Switzerland) at 50K cells/well. Medium from L929 cells were removed from the 96-well plates and replaced with 50 μL/well new medium containing 40 uM zVAD-fink. Each compound of the present disclosure evaluated in this example was serially diluted in DMSO from 2.5 mM in 4-fold dilutions, and then diluted 1:125 in complete medium. 50 μL/well 2× of the compound was then added to the cells in the plates. The cells were pre-incubated with the compound for 1 hour at 37° C. with 5% CO2 and before addition of 10 μL/well 1 1×TNFa (Peprotech, Rocky Hill, N.J., USA) to give a final concentration of 2 ng/mL for TNFa. The relative amount of necroptosis cells was determined by luminescent using a Wallac Victor2 Luminometer (PerkinElmer, Waltham, Mass., USA) and a CellTiter-Glo® Luminescent Cell Viability Reagent Assay (Promega, Madison, Wis., USA) added per manufacturer instructions after 18 hours of TNFa stimulation at 37° C. with 5% CO2. This example establishes that embodiments of the compounds described herein have unexpectedly potent activity against human RIP1 and murine RIP1, which allows their assessment in in vivo mouse models of disease.

RIPK1 = RIPK1 (Homo sapiens (Human), UniProt Q13546); test: RIPK1 ADP-Glo biochemical kinase assay
Procedure: The final reaction volume was 5.0ul.
Adding 5 μl of ADP-Glo™ terminated the reaction.

L929 cells = test: L929 cell necroptosis assay (TNFa + zVAD, CellTiter-Glo); type: cell-based, murine; conditions: Mus musculus, L929, L929 cells, TNFa + zVAD; read-out: L929-CTG-recovery, L929, TNFa + zVAD (IC50)
Procedure: as §1
as §2, with “The cells were pre-incubated with the compound for 1 hour at 37° C. with 5% CO2 and before addition of 10 μL/well 1 1×TNFa (Peprotech, Rocky Hill, N.J., USA) to give a final concentration of 2 ng/mL for TNFa.” left out, “CO2.” for “CO2. This example establishes that embodiments of the compounds described herein have unexpectedly potent activity against human RIP1 and murine RIP1, which allows their assessment in in vivo mouse models of disease.”

[1] = U-937, U937 cells, TNFa + zVAD, read-out: U937 Zvad TNF CTG Recovery, U937, TNFa + zVAD (IC50)
[2] = read-out: RIPK1 ADP-Glo Kinase (IC50)
[3] = U-937, read-out: U937 Zvad TNF CTG Recovery, U937, TNFa + zVAD (IC50), U937 cells, TNFa + zVAD

RIPK1, sequence (Q13546 whole entry, species assumed): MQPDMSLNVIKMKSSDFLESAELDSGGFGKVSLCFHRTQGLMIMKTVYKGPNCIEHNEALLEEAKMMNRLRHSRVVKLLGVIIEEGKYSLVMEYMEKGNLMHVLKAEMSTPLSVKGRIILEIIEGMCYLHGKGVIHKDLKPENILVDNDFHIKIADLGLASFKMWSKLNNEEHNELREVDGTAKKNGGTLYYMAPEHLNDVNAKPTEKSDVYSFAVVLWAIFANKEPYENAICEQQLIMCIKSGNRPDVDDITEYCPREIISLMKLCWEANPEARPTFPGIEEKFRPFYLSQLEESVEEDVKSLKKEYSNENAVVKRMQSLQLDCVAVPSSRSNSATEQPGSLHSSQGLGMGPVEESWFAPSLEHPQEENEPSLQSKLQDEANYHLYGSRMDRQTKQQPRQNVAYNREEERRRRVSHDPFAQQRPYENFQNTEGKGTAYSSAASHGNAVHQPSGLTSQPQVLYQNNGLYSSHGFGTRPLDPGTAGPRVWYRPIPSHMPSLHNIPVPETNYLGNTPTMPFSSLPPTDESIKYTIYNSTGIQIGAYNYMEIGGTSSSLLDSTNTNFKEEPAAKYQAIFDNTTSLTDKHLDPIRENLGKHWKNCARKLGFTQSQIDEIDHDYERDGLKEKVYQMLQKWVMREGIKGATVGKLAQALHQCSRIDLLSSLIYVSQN

`CN1C(=O)[C@@H](NC(=O)c2n[nH]c(Cc3ccccc3)n2)COc2ccc(CCC(=O)Nc3ccc4[nH]ncc4c3)cc21` [Compound I-2, (S)—N-(7-(3-((1H-indazol-5-yl)amino)-3-oxopropyl)-5-methyl-4-oxo-2,3,4,5-tetrahydrobenzo[b][1,4]oxazepin-3-yl)-5-benzyl-1H-1,2,4-triazole-3-carboxamide] was tested, and the IC50 (U937 cells; [1]) was 31.9 nM and the IC50 (RIPK1; [2]) was 15.7 nM.
Work on `COc1cc2ncnc(NC(=O)CCc3ccc4c(c3)N(C)C(=O)[C@@H](NC(=O)c3n[nH]c(Cc5ccccc5)n3)CO4)c2cc1OC` [Compound I-4, (S)-5-benzyl-N-(7-(3-((6,7-dimethoxyquinazolin-4-yl)amino)-3-oxopropyl)-5-methyl-4-oxo-2,3,4,5-tetrahydrobenzo[b][1,4]oxazepin-3-yl)-1H-1,2,4-triazole-3-carboxamide] yielded an IC50 (U937 cells; [1]) of 29.3 nM and an IC50 (RIPK1; [2]) of 56.8 nM.
In the case of `CN1C(=O)[C@@H](NC(=O)c2n[nH]c(Cc3ccccc3)n2)COc2ccc(CCC(=O)O)cc21` [Compound I-9, (S)-3-(3-(5-benzyl-1H-1,2,4-triazole-3-carboxamido)-5-methyl-4-oxo-2,3,4,5-tetrahydrobenzo[b][1,4]oxazepin-7-yl)propanoic acid], the IC50 (U937 cells; [1]) is reported as 362 nM and the IC50 (RIPK1; [2]) is reported as 189 nM.
`CN1C(=O)[C@@H](NC(=O)c2n[nH]c(Cc3ccccc3)n2)COc2ccc(CCC(=O)NC3CC3)cc21` [Compound I-13, (S)-5-benzyl-N-(7-(3-(cyclopropylamino)-3-oxopropyl)-5-methyl-4-oxo-2,3,4,5-tetrahydrobenzo[b][1,4]oxazepin-3-yl)-1H-1,2,4-triazole-3-carboxamide] showed an IC50 (U937 cells; [1]) of 13.8 nM and an IC50 (RIPK1; [2]) of 53.9 nM.
`CN1C(=O)[C@@H](NC(=O)c2n[nH]c(Cc3ccc(F)cc3F)n2)COc2ccc(CCC(=O)NC3CC3)cc21` [Compound I-27, (S)—N-(7-(3-(cyclopropylamino)-3-oxopropyl)-5-methyl-4-oxo-2,3,4,5-tetrahydrobenzo[b][1,4]oxazepin-3-yl)-5-(2,4-difluorobenzyl)-1H-1,2,4-triazole-3-carboxamide] gave an IC50 (U937 cells; [1]) of 69.7 nM and an IC50 (RIPK1; [2]) of 158 nM.
With `CN1C(=O)[C@@H](NC(=O)c2n[nH]c(Cc3ccccc3)n2)COc2ccc(CCC(N)=O)cc21` [Compound I-31, (S)—N-(7-(3-amino-3-oxopropyl)-5-methyl-4-oxo-2,3,4,5-tetrahydrobenzo[b][1,4]oxazepin-3-yl)-5-benzyl-1H-1,2,4-triazole-3-carboxamide] the IC50 (U937 cells; [1]) was 33.7 nM and the IC50 (RIPK1; [2]) was 33.4 nM.
`CN1C(=O)[C@@H](NC(=O)c2n[nH]c(Cc3ccccc3)n2)COc2ccc(C#CC3(O)CCC3)cc21` [Compound I-51, (S)-5-benzyl-N-(7-((1-hydroxycyclobutyl)ethynyl)-5-methyl-4-oxo-2,3,4,5-tetrahydrobenzo[b][1,4]oxazepin-3-yl)-1H-1,2,4-triazole-3-carboxamide] gave an IC50 (RIPK1; [2]) of 31.7 nM.
With `CN1C(=O)[C@@H](NC(=O)c2ccc(Oc3ccccc3)cn2)COc2ccc(C#CC(C)(C)O)cc21` [Compound I-121, (S)—N-(7-(3-hydroxy-3-methylbut-1-yn-1-yl)-5-methyl-4-oxo-2,3,4,5-tetrahydrobenzo[b][1,4]oxazepin-3-yl)-5-phenoxypicolinamide] the IC50 (U937 cells; [1]) was 30300 nM and the IC50 (RIPK1; [2]) was 12400 nM.
`CN1C(=O)[C@@H](NC(=O)c2ccc(Oc3ccc(F)cc3)cn2)COc2ccc(C#CC(C)(C)O)cc21` [Compound I-122, (S)-5-(4-fluorophenoxy)-N-(7-(3-hydroxy-3-methylbut-1-yn-1-yl)-5-methyl-4-oxo-2,3,4,5-tetrahydrobenzo[b][1,4]oxazepin-3-yl)picolinamide] showed an IC50 (U937 cells; [1]) of 40400 nM and an IC50 (RIPK1; [2]) of 12300 nM.
In the case of `CN1C(=O)[C@@H](NC(=O)c2cc(Oc3ccc(F)cc3)ccn2)COc2ccc(C#CC3(O)CCNCC3)cc21` [Compound I-133, (S)-4-(4-fluorophenoxy)-N-(7-((4-hydroxypiperidin-4-yl)ethynyl)-5-methyl-4-oxo-2,3,4,5-tetrahydrobenzo[b][1,4]oxazepin-3-yl)picolinamide], the IC50 (U937 cells; [1]) is reported as 492 nM and the IC50 (RIPK1; [2]) is reported as 173 nM.
In the case of `CN1C(=O)[C@@H](NC(=O)c2cc(Oc3ccccc3)ccn2)COc2ccc(CN3CC4(CCOCC4)C3)cc21` [Compound I-150, (S)—N-(7-((7-oxa-2-azaspiro[3.5]nonan-2-yl)methyl)-5-methyl-4-oxo-2,3,4,5-tetrahydrobenzo[b][1,4]oxazepin-3-yl)-4-phenoxypicolinamide], the IC50 (U937 cells; [1]) is reported as 83.1 nM and the IC50 (RIPK1) is reported as 44.7 nM.
In the case of `CN1C(=O)[C@@H](NC(=O)c2cc(Oc3ccccc3)ccn2)COc2ccc(C#CC(=O)O)cc21` [Compound I-161, (S)-3-(5-methyl-4-oxo-3-(4-phenoxypicolinamido)-2,3,4,5-tetrahydrobenzo[b][1,4]oxazepin-7-yl)propiolic acid], the IC50 (U937 cells; [1]) is reported as 45.5 nM and the IC50 (RIPK1; [2]) is reported as 36.2 nM.
`COc1ccnc(C(=O)N[C@H]2COc3ccc(C#CC4(O)COC4)cc3N(C)C2=O)c1` [Compound I-162, (S)—N-(7-((3-hydroxyoxetan-3-yl)ethynyl)-5-methyl-4-oxo-2,3,4,5-tetrahydrobenzo[b][1,4]oxazepin-3-yl)-4-methoxypicolinamide] was tested, and the IC50 (U937 cells; [1]) was 1660 nM and the IC50 (RIPK1; [2]) was 54.4 nM.
Compound `COc1ccnc(C(=O)N[C@H]2COc3ccc(C#CC(C)(C)O)cc3N(C)C2=O)c1` [Compound I-163, (S)—N-(7-(3-hydroxy-3-methylbut-1-yn-1-yl)-5-methyl-4-oxo-2,3,4,5-tetrahydrobenzo[b][1,4]oxazepin-3-yl)-4-methoxypicolinamide] has an IC50 (U937 cells; [3]) of 3320 nM and an IC50 (RIPK1; [2]) of 509 nM.
Compound `CN1C(=O)[C@@H](NC(=O)c2cc(Oc3ccccc3)ccn2)COc2ccc(C#CC3(O)CS(=O)(=O)C3)cc21` [Compound I-209, (S)—N-(7-((3-hydroxy-1,1-dioxidothietan-3-yl)ethynyl)-5-methyl-4-oxo-2,3,4,5-tetrahydrobenzo[b][1,4]oxazepin-3-yl)-4-phenoxypicolinamide] has an IC50 (U937 cells; [3]) of 59.5 nM and an IC50 (RIPK1; [2]) of 106 nM.
`CN1C(=O)[C@@H](NC(=O)c2cc(Oc3ccccc3)ccn2)COc2ccc(C#CC(C)(C)N3CCS(=O)(=O)CC3)cc21` [Compound I-211, (S)—N-(7-(3-(1,1-Dioxidothiomorpholino)-3-methylbut-1-yn-1-yl)-5-methyl-4-oxo-2,3,4,5-tetrahydrobenzo[b][1,4]oxazepin-3-yl)-4-phenoxypicolinamide] showed an IC50 (U937 cells; [1]) of 1.1 nM and an IC50 (L929 cells) of 44.8 nM.
`CN1C(=O)[C@@H](NC(=O)n2cc(Cc3ccc(F)cc3F)cn2)COc2ccc(C#CC(C)(C)CO)cc21` [Compound I-239, (S)-4-(2,4-Difluorobenzyl)-N-(7-(4-hydroxy-3,3-dimethylbut-1-yn-1-yl)-5-methyl-4-oxo-2,3,4,5-tetrahydrobenzo[b][1,4]oxazepin-3-yl)-1H-pyrazole-1-carboxamide] was tested, and the IC50 (U937 cells; [1]) was 8.8 nM and the IC50 (L929 cells) was 218 nM.
`CN1C(=O)[C@@H](NC(=O)c2cc(Oc3ccc(C#N)cc3)ccn2)COc2cc(C#CC(C)(C)O)ccc21` [II-17, (S)-4-(4-cyanophenoxy)-N-(8-(3-hydroxy-3-methylbut-1-yn-1-yl)-5-methyl-4-oxo-2,3,4,5-tetrahydrobenzo[b][1,4]oxazepin-3-yl)picolinamide] was tested, and the IC50 (U937 cells; [1]) was 1490 nM and the IC50 (RIPK1; [2]) was 518 nM.
With `COc1cccc(-c2ccnc(C(=O)N[C@H]3COc4ccc(C#CC(C)(C)O)cc4N(C)C3=O)c2)c1` [II-23, (S)—N-(7-(3-hydroxy-3-methylbut-1-yn-1-yl)-5-methyl-4-oxo-2,3,4,5-tetrahydrobenzo[b][1,4]oxazepin-3-yl)-4-(3-methoxyphenyl)picolinamide] the IC50 (U937 cells; [1]) was 545 nM and the IC50 (RIPK1; [2]) was 1280 nM.
